Experimental findings from patent publication US10865191B2, “Heterocyclic compounds useful as modulators of TNF alpha” (BRISTOL-MYERS SQUIBB COMPANY, priority 2015, dated 2020) are described below.

In the assay the target is TNFα (Homo sapiens, UniProt P01375). As to the kind of experiment: TNF induced HEK-Blue assay (NF-kB-driven secreted alkaline phosphatase reporter). The assay is classed as cell-based. The conditions noted are these: TNFα 0.5 ng/mL, HEK-Blue-CD40L cells, 18 h. The essentials:
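HEK-Blue-CD40L cells (NF-kB-driven SEAP reporter), 20,000/well, added after 30 min pre-incubation of compound (0.004–25 μM final) with TNFα 0.5 ng/mL final at 37 °C; 18 h incubation. SEAP read with QUANTI-Blue at 620 nm; IC50 from 4-parameter logistic fit, normalized to unstimulated and stimulated DMSO controls.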

[1] abbreviates: read-out: TNF induced HEK-Blue assay IC50 value.

Where two headings read alike, the source gives them in different places.

Sequence of TNFα (P01375 77-233 limits assumed): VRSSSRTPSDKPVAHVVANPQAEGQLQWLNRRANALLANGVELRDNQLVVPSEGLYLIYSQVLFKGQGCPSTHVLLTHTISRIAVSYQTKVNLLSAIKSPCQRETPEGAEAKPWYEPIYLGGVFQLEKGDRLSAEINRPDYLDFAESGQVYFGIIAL

For the compound `CC(C)(O)c1ncc(-c2nc3c(N[C@H](c4cc(C(O)CO)ccc4F)C(F)F)c(Cl)cnc3cc2F)cn1` (stereo partly drawn) [Example 488, 1-(3-((R)-1-((3-chloro-7-fluoro-6-(2-(2-hydroxypropan-2-yl)pyrimidin-5-yl)-1,5-naphthyridin-4-yl)amino)-2,2-difluoroethyl)-4-fluorophenyl)ethane-1,2-diol], the IC50 under setting [1] was under 1000 nM.

For `C[C@@H](Nc1c(Cl)cnc2ccccc12)c1cc(-c2ccc(N(C)C)nc2)ccc1F` [Example 506, (R)-3-chloro-N-(1-(5-(6-(dimethylamino)pyridin-3-yl)-2-fluorophenyl)ethyl) quinolin-4-amine], the IC50 under setting [1] is under 1000 nM.

Take `CC(Nc1c(Cl)cnc2cc(F)c(-c3ccc(C(O)C4CC4)cc3)cc12)c1ccccc1F` (stereo not shown) [Example 261, (4-(3-chloro-7-fluoro-4-((1-(2-fluorophenyl)ethyl)amino)quinolin-6-yl)phenyl)(cyclopropyl) methanol]: under setting [1], the IC50 was under 1000 nM.

On to `CC(Nc1c(Cl)cnc2ccc(-c3cnc(C(C)(C)O)nc3)cc12)c1cc(F)ccc1F` (racemic) [Example 160, 2-(5-(3-chloro-4-((1-(2,5-difluorophenyl)ethyl)amino)quinolin-6-yl)pyrimidin-2-yl)propan-2-ol], for which, under setting [1], the IC50 was under 1000 nM.

As to `CC(C)(O)c1ncc(-c2ccc3ncc(Cl)c(NC(c4ccccc4F)C(F)F)c3c2)cn1` (single isomer, unassigned) [Example 55a], the half-inhibitory concentration (IC50) under setting [1] is under 1000 nM.

With `CCC(Nc1c(Cl)cnc2ccc(-c3cnc(C(C)(C)O)nc3)cc12)c1ccccc1F` (racemic) [Example 190, 2-(5-(3-chloro-4-((1-(2-fluorophenyl)propyl)amino)quinolin-6-yl)pyrimidin-2-yl)propan-2-ol], the IC50 (TNF induced HEK-Blue assay IC50 value) is under 1000 nM.

On to `Cc1nc2cc(F)c(-c3cnc(C(C)(C)O)nc3)nc2c(NC(c2ccccc2)C(F)F)c1Cl` (racemic) [Example 214, 2-(5-(7-chloro-8-((2,2-difluoro-1-phenylethyl)amino)-3-fluoro-6-methyl-1,5-naphthyridin-2-yl)pyrimidin-2-yl)propan-2-ol], for which the IC50 under setting [1] is under 1000 nM.

As for `CC(Nc1c(Cl)cnc2cc(F)c(-c3cnc(C(O)CN4CCOCC4)cn3)cc12)c1ccccc1F` (stereo not shown) [Example 275, 1-(5-(3-chloro-7-fluoro-4-((1-(2-fluorophenyl)ethyl)amino)quinolin-6-yl)pyrazin-2-yl)-2-morpholinoethan-1-ol], the IC50 under setting [1] was under 1000 nM.

For the compound `Cc1c(-c2ccc(F)c([C@@H](C)Nc3c(Cl)cnc4ccccc34)c2)cnn1C` [Example 474, (R)-3-chloro-N-(1-(5-(1,5-dimethyl-1H-pyrazol-4-yl)-2-fluorophenyl)ethyl)quinolin-4-amine], the IC50 under setting [1] is under 1000 nM.

With `C[C@@H](Nc1c(Cl)cnc2ccc(-c3ccc(N4CCN(CC(=O)O)C(=O)C4)nc3)cc12)c1ccccc1F` [Example 81, (R)-2-(4-(5-(3-chloro-4-((1-(2-fluorophenyl)ethyl)amino)quinolin-6-yl)pyridin-2-yl)-2-oxopiperazin-1-yl)acetic acid], the half-inhibitory concentration (IC50) under setting [1] was 1000 to 10000 nM.

`C[C@@H](Nc1c(Cl)cnc2ccccc12)c1cc(-c2cnn(Cc3ccccc3)c2)ccc1F` [Example 466, (R)—N-(1-(5-(1-benzyl-1H-pyrazol-4-yl)-2-fluorophenyl)ethyl)-3-chloroquinolin-4-amine]: the IC50 under setting [1] was in the range of 10000 to 25000 nM.

`Cc1nc2cc(F)c(-c3cnc(C(C)(C)O)nc3)nc2c(N[C@@H](c2cc(CO)ccc2F)C(F)F)c1Cl` [Example 496, (S)-2-(5-(7-chloro-8-((2,2-difluoro-1-(2-fluoro-5-(hydroxymethyl)phenyl)ethyl)amino)-3-fluoro-6-methyl-1,5-naphthyridin-2-yl)pyrimidin-2-yl)propan-2-ol]: under setting [1], the IC50 is under 1000 nM.

Take `C[C@@H](Nc1c(Cl)cnc2ccc(-c3cnc(C(C)(C)O)nc3)cc12)c1cc(-c2nnn(C)n2)ccc1F` [Example 413, (R)-2-(5-(3-chloro-4-((1-(2-fluoro-5-(2-methyl-2H-tetrazol-5-yl)phenyl)ethyl)amino)quinolin-6-yl)pyrimidin-2-yl)propan-2-ol]: the IC50 under setting [1] is under 1000 nM.

Regarding `Cc1ccc(C)c(Nc2c(Cl)c(C(=O)Nc3ccncc3)nc3ccc(-c4ccc(C#N)nc4)cc23)c1` [Example 36, 3-chloro-6-(6-cyanopyridin-3-yl)-4-((2,5-dimethylphenyl)amino)-N-(pyridin-4-yl)quinoline-2-carboxamide], the IC50 under setting [1] is under 1000 nM.

Turning to `C[C@@H](Nc1c(Cl)cnc2ccc(-c3cnc(C(C)(C)O)nc3)cc12)c1cc(C2=CCN(C(=O)OC(C)(C)C)CC2)ccc1F` [Example 337, tert-butyl (R)-4-(3-(1-((3-chloro-6-(2-(2-hydroxypropan-2-yl)pyrimidin-5-yl)quinolin-4-yl)amino)ethyl)-4-fluorophenyl)-3,6-dihydropyridine-1(2H)-carboxylate], the IC50 under setting [1] fell in the range of 1000 to 10000 nM.

Regarding `C[C@@H](Nc1c(Cl)cnc2ccccc12)c1cc(-c2cncnc2)ccc1F` [Example 479, (R)-3-chloro-N-(1-(2-fluoro-5-(pyrimidin-5-yl)phenyl)ethyl)quinolin-4-amine], the concentration for half-maximal inhibition (IC50) under setting [1] was under 1000 nM.

Turning to `CCC(Nc1c(Cl)cnc2ccc(-c3ccc(C(C)(C)O)cc3)cc12)c1nc(C(N)=O)ccc1F` (racemic) [Example 24, 6-(1-((3-chloro-6-(4-(2-hydroxypropan-2-yl)phenyl)quinolin-4-yl)amino)propyl)-5-fluoropicolinamide], under setting [1], the half-maximal inhibitory concentration (IC50) was under 1000 nM.

As for `Cc1nc2ccc(-c3cnc(N4CCN(CC(=O)O)CC4)nc3)cc2c(N[C@H](C)c2cc(C(N)=O)ccc2F)c1Cl` [Example 389, (R)-2-(4-(5-(4-((1-(5-carbamoyl-2-fluorophenyl)ethyl)amino)-3-chloro-2-methylquinolin-6-yl)pyrimidin-2-yl)piperazin-1-yl)acetic acid], the IC50 under setting [1] is under 1000 nM.

For `CC(Nc1c(Cl)cnc2cc(F)c(-c3cnc(C(O)CO)nc3)cc12)c1ccccc1F` (single isomer, unassigned) [Example 597, 1-(5-(3-chloro-7-fluoro-4-((1-(2-fluorophenyl)ethyl)amino)quinolin-6-yl)pyrimidin-2-yl)ethane-1,2-diol], the IC50 under setting [1] was in the range of 1000 to 10000 nM.

On to `CCC(Nc1c(Cl)cnc2ccc(-c3cnc(C(C)(C)O)nc3)cc12)c1nc(C(O)CO)ccc1F` (stereo not shown) [Example 127, 1-(6-(1-((3-chloro-6-(2-(2-hydroxypropan-2-yl)pyrimidin-5-yl)quinolin-4-yl)amino)propyl)-5-fluoropyridin-2-yl)ethane-1,2-diol], for which the IC50 under setting [1] was under 1000 nM.

On to `C[C@H](Nc1c(Cl)cnc2ccc(-c3cnc(C(C)(C)O)nc3)cc12)[C@H]1CCCN(c2cncnc2)C1` [Example 567, 2-(5-(3-chloro-4-(((S)-1-((S)-1-(pyrimidin-5-yl)piperidin-3-yl)ethyl)amino)quinolin-6-yl)pyrimidin-2-yl)propan-2-ol], for which the IC50 under setting [1] lay within 1000 to 10000 nM.

For the compound `CC(Nc1c(Cl)cnc2cc(F)c(-c3cc(F)c(C(C)(C)O)c(F)c3)cc12)c1ccccc1F` (racemic) [Example 267, 2-(4-(3-chloro-7-fluoro-4-((1-(2-fluorophenyl)ethyl)amino)quinolin-6-yl)-2,6-difluorophenyl)propan-2-ol], under setting [1], the IC50 was under 1000 nM.
